Source: patent US8263638B2, “Dosing regimens for ion channel modulating compounds” (priority 2004, dated 2012)

How the values were obtained:
[1] = tested on: atrial fibrillation duration from 3 hours to 45 days; experiment: Atrial Arrhythmia Conversion Trial 1, Phase III (Example 6); type: in vivo, human; details: for median time to conversion: responders
Procedure: This study was conducted to assess the efficacy and safety of COMPOUND A in the conversion of atrial fibrillation to sinus rhythm in humans. The study was a randomized, double-blind, placebo-controlled Phase III study.
Patients were randomized in a 2:1 ratio (COMPOUND A:placebo) and stratified by atrial fibrillation duration. The entire group of patients (pts) had atrial fibrillation duration from 3 hours to 45 days. One subgroup had atrial fibrillation duration from 3 hours to 7 days. Another subgroup had atrial fibrillation duration from 8 days to 45 days.
The primary endpoint of the study was the proportion of patients with atrial fibrillation duration of 3 hours to 7 days who had treatment-induced conversion of atrial fibrillation to sinus rhythm with 90 minutes. Secondary endpoints include the time-to-conversion of atrial fibrillation to sinus rhythm in patients with atrial fibrillation of 3 hours to 7 days and the proportion of patients with termination of atrial fibrillation within 90 minutes in the subgroup of patients with 8 days to 45 days of atrial fibrillation duration and in the entire group of patients with 3 hours to 45 days of atrial fibrillation duration.
Dosing was as follows: Placebo or 3.0 mg/kg of COMPOUND A was administered by infusion over a 10 minute period, followed by a 15-minute observation period. If atrial fibrillation was not terminated, placebo or 2.0 mg/kg of COMPOUND A was adminstered by infusion over a 10 minute period.
The patient population was randomized (n=[…]). […] There were 220 patients in the subgroup having 3 hours to 7 days atrial fibrillation. Of these 220 patients, 75 received placebo and 145 received COMPOUND A. There were 116 patients in the subgroup having 8 days to 45 days atrial fibrillation. Of these 116 patients, 40 received placebo and 76 received COMPOUND A.

[2] = Plasma concentrations of COMPOUND A in electrophysiology study (Example 1); type: in vivo; details: human, intravenous, T = 45 min
Procedure: Blood samples for COMPOUND A concentrations were drawn at 0, 10 and 45 minutes after the start of drug infusion, and at discharge the next day.

[3] = tested on: atrial fibrillation of 3 hours to 45 days; experiment: Conversion of recent onset atrial fibrillation to sinus rhythm (Example 3); type: in vivo, human; details: for Number of Patients Converted to Sinus Rhythm / Patients (%) Converted to Sinus Rhythm: within 90 minutes
Procedure: The primary endpoint of this study was the proportion of patients with atrial fibrillation duration of 3 hours to 7 days who had treatment-induced conversion to sinus rhythm within 90 minutes of treatment. Secondary endpoints included the time-to-conversion of atrial fibrillation to sinus rhythm in patients with atrial fibrillation duration of 3 hours to 7 days; the proportion of patients with atrial fibrillation of 8 to 45 days who had treatment-induced conversion to sinus rhythm within 90 minutes of treatment, and the proportion of patients in the entire group with atrial fibrillation of 3 hours to 45 days who had treatment-induced conversion to sinus rhythm within 90 minutes of treatment.
336 patients were randomized in a 2:1 ratio of COMPOUND A to placebo (221 patients received COMPOUND A and 115 patients received placebo) and stratified by atrial fibrillation duration of 3 hours to 7 days and 8 to 45 days.
A first 10-minute infusion of a test compound (placebo or 3 mg/kg of COMPOUND A) was given to each patient. A second 10-minute infusion (placebo or 2 mg/kg of COMPOUND A) was given 15 minutes later if atrial fibrillation was not terminated. Safety was assessed by the incidence of adverse events, vital signs, laboratory data, ECG and holter monitoring.

[4] = COMPOUND A plasma concentrations in acute AF study (Example 2); type: in vivo, human
Procedure: A Holter rhythm strip continuously monitored ECG, vital signs (blood pressure and heart rate, BP and HR, respectively) and O2 saturation were recorded every 2 min from the start of infusion to 5 min after, as well as at 15, 30, 60, 120, 240, 360, and 480 min and at discharge and one-week follow-up. Twelve-lead ECGs were obtained before dosing and every minute during infusion to 5 min after, as well as at 15, 30, 60, 120, 240, 360, and 480 min and at discharge, 24 h and one-week follow-up, and at the time of arrhythmia termination or significant rhythm changes. Venous blood samples were drawn for COMPOUND A plasma concentrations at 0, 15, 30, 120, 240, 480 min discharge and at AF termination or significant adverse events.
COMPOUND A doses were infused over 10 min as indicated in the text. Initially a 2 mg/kg infusion was given and if required an additional 3 mg/kg was infused 30 min later in the RSD-2 group. Time is shown relative to the end of the first infusion (T1).

[5] = 30-day follow-up period after dosing, n = 221
[6] = 24 hour period post-dosing, holter, n = 221
[7] = 24 hour time period following dosing, n = 221
[8] = non-responders with attempted cardioversion
[9] = 30-day interval following administration
[10] = AF 8-45 days, 3 mg/kg then 2 mg/kg
[11] = AF 3 hr-7 days, 3 mg/kg then 2 mg/kg
[12] = patients that received only the 2 mg/kg infusion

Q: What does the source list for `COc1ccc(CCO[C@@H]2CCCC[C@H]2N2CC[C@@H](O)C2)cc1OC.Cl` [COMPOUND A, (1R,2R)-2-[(3R)-hydroxypyrrolidinyl]-1-(3,4-dimethoxyphenethoxy)cyclohexane monohydrochloride]?
A: serious adverse events: Cardiac disorders (%) [1, 5]: 10.0%; serious adverse events: Cardiac disorders (number) [1, 5]: 22; serious adverse events: Infections and infestations (%) [1, 5]: 1.4%; serious adverse events: Infections and infestations (number) [1, 5]: 3; serious adverse events: Nervous system disorders (%) [1, 5]: 0.0%; serious adverse events: Nervous system disorders (number) [1, 5]: 0; serious adverse events: Respiratory, thoracic and mediastinal disorders (%) [1, 5]: 1.8%; serious adverse events: Respiratory, thoracic and mediastinal disorders (number) [1, 5]: 4; serious adverse events: Total (%) [1, 5]: 13.1%; serious adverse events: Total (number) [1, 5]: 29; serious adverse events: Vascular disorders (%) [1, 5]: 1.4%; serious adverse events: Vascular disorders (number) [1, 5]: 3; Monomorphic sustained ventricular tachycardia (%) [1, 6]: 0.0%; Monomorphic sustained ventricular tachycardia (number) [1, 6]: 0; Monomorphic unsustained aberrant condition (%) [1, 6]: 1.4%; Monomorphic unsustained aberrant condition (number) [1, 6]: 3; Monomorphic unsustained ventricular tachycardia (%) [1, 6]: 0.9%; Monomorphic unsustained ventricular tachycardia (number) [1, 6]: 2; Polymorphic sustained ventricular tachycardia (%) [1, 6]: 0.0%; Polymorphic sustained ventricular tachycardia (number) [1, 6]: 0; Polymorphic unsustained aberrant condition (%) [1, 6]: 0.0%; Polymorphic unsustained aberrant condition (number) [1, 6]: 0; Polymorphic unsustained ventricular tachycardia (%) [1, 6]: 0.0%; Polymorphic unsustained ventricular tachycardia (number) [1, 6]: 0; Torsades de Pointes (%) [1, 6]: 0.0%; Torsades de Pointes (number) [1, 6]: 0; Ventricular Rhythm >=5 beats: Total (%) [1, 6]: 2.3%; Ventricular Rhythm >=5 beats: Total (number) [1, 6]: 5; Ventricular escape rhythm (%) [1, 6]: 0.0%; Ventricular escape rhythm (number) [1, 6]: 0; treatment-emergent adverse event: Atrial fibrillation (%) [1, 7]: 4%; treatment-emergent adverse event: Atrial fibrillation (number) [1, 7]: 8; treatment-emergent adverse event: Cough (%) [1, 7]: 5%; treatment-emergent adverse event: Cough (number) [1, 7]: 11; treatment-emergent adverse event: Dysgeusia (%) [1, 7]: 30%; treatment-emergent adverse event: Dysgeusia (number) [1, 7]: 66; treatment-emergent adverse event: Hypotension (%) [1, 7]: 6%; treatment-emergent adverse event: Hypotension (number) [1, 7]: 14; treatment-emergent adverse event: Nausea (%) [1, 7]: 9%; treatment-emergent adverse event: Nausea (number) [1, 7]: 20; treatment-emergent adverse event: Paraesthesia (%) [1, 7]: 11%; treatment-emergent adverse event: Paraesthesia (number) [1, 7]: 24; treatment-emergent adverse event: Pruritus (%) [1, 7]: 6%; treatment-emergent adverse event: Pruritus (number) [1, 7]: 13; treatment-emergent adverse event: Sneezing (%) [1, 7]: 16%; treatment-emergent adverse event: Sneezing (number) [1, 7]: 36; responders converted after the first dosing ([1]; both the short duration subgroup and the entire group): 76%; responders relapsed into atrial fibrillation in the first 24 hours post-dosing ([1]; in vivo): one; Electrical cardioversion was attempted (%) ([1]; n = 221): 43%; Electrical cardioversion was attempted (number) ([1]; n = 221): 96; Successfully converted by electrical cardioversion (%) [1, 8]: 85%; Successfully converted by electrical cardioversion (number) [1, 8]: 82; median time to conversion ([1]; entire group (3 hrs-45 days atrial fibrillation)): 11.5 min; median time to conversion ([1]; short duration subgroup (3 hrs-7 days atrial fibrillation)): 11 min; concentration at 45 min ([2]; Dose Level 1, 2 mg/kg): 1.08 ± 0.279 µg/mL; concentration at 45 min ([2]; Dose Level 2, 4 mg/kg): 2.17 ± 0.422 µg/mL; patients with recurrence of atrial fibrillation (serious adverse event) [3, 9]: 6%; patients with serious adverse events [3, 9]: 13%; converted patients relapsed within 24 hrs of administration ([3]; 3 hours to 7 days group converters): one; median time to conversion ([3]; 3 hours to 7 days group, seventy-five converters): eleven; Number of Patients Converted to Sinus Rhythm [3, 10]: 6; Patients (%) Converted to Sinus Rhythm [3, 10]: 8%; Number of Patients Converted to Sinus Rhythm [3, 11]: 75; Patients (%) Converted to Sinus Rhythm [3, 11]: 52%; Number of Patients Converted to Sinus Rhythm ([3]; Entire Group, AF 3 hr-45 days): 83; Patients (%) Converted to Sinus Rhythm ([3]; Entire Group, AF 3 hr-45 days): 38%; drug-related Torsades de Pointes ([3]; in vivo): no cases; patients with transient alteration in taste ([3]; in vivo): 30%; Plasma drug levels at 24 h post-infusion (below the limit of detection) ([4]; RSD-1, majority of patients): < 0.005 µg/mL; mean plasma levels at 24 h ([4]; RSD-2 group): 0.017 µg/mL; Mean peak plasma levels ([4]; patients that received both 0.5 and 1.0 mg/kg): 1.9 µg/mL; Mean peak plasma levels ([4]; patients that received both the 2.0 and 3.0 mg/kg infusions): 5.8 µg/mL; mean peak plasma levels at the end of infusion [4, 12]: 2.6 µg/mL; mean terminal elimination half life [4, 12]: 3.1 h; median plasma level at the time of AF conversion [4, 12]: 1.3 µg/mL
